Data taken from patent US12269801B2, “Modified amino acids” (SUTRO BIOPHARMA, INC., priority 2012, dated 2025).

Experiments:
[1] = Reactivity of amino acid analogs with DBCO-NH2 (61), absorption at 310 nm; format: physicochemical; conditions: 1:1 equivalence; for yield of reaction with compound (61): in six hours; for reaction rate with compound (61): pH 7.4 phosphate buffered saline, compared among analogs
Method: DBCO-NH2 (61) was dissolved in pH 7.4 phosphate buffered saline to yield a 500 µM solution. Amino acid analogs (30), (1), and (2) were dissolved in the same buffer to yield 5 mM clear solutions, and then diluted to a concentration of 500 μM using the same buffer. One hundred microliters of each amino acid analog was mixed with 100 μL of compound (61) and vortexed. The absorption of compound (61) was monitored at 310 nm using a NANODROP 1000 UV Spectrometer. Measurements were obtained at 0, 0.5, 2, 6, and 20 hours. The reduction in the absorption of compound (61) is indicative of its reaction with the amino acid analogs.

[2] = test system: human GMCSF; assay: Cell-free incorporation into GM-CSF at amber codon, autoradiography; format: biochemical; conditions: 1 mM compound (30), TAG at serine position 6
Method: DNA encoding human GMCSF with amber codon was cloned into expression vector pYD317. The TAG codon was inserted by overlapping PCR mutagenesis at the nucleotides corresponding to the amino acid serine at the position 6.
(§1) Cell-free extracts containing tRNA CUA were thawed to room temperature and incubated with 50 μM iodoacetamide for 30 min. Cell-free reactions were run at 30 C for up to 10 h containing 30% (v/v) iodoacetamide-treated extract with 8 mM magnesium glutamate, 10 mM ammonium glutamate, 130 mM potassium glutamate, 35 mM sodium pyruvate, 1.2 mM AMP, 0.86 mM each of GMP, UMP, and CMP, 2 mM amino acids for all 18 amino acids except tyrosine and phenylalanine which were added at 0.5 mM, 4 mM sodium oxalate, 1 mM putrescine, 1.5 mM spermidine, 15 mM potassium phosphate, 100 nM T7 RNAP, 1.3 μM E. coli DsbC, 2 mM oxidized (GSSG) glutathione, 1 μM tRNA synthetase, and 1 mM compound (30). The concentrations of GMCSF TAG variant plasmid was 5 μg/mL. […]
(§2) For reducing gel, 4 μL of sample, 1 μL of 1 M DTT, 7 μL of DI H2O and 4 μL of 4×LDS buffer (Invitrogen, Carlsbad, CA) were mixed and heated in hot blot at 70 C for 5 minutes. Samples were analyzed by 4˜12% Bis-Tris SDS-PAGE gels (Invitrogen, Carlsbad, CA) according to the manufacturer's recommendations. Gels were dried and analyzed by autoradiography using a Storm 840 PhosphoImager after about 16 hours exposure.

[3] = Reactivity of azido amino acids with DBCO analog (60), loss of DBCO absorbance at 310 nm; format: physicochemical; conditions: reaction with compound (60); for second-order rate constant: PBS buffer, 25° C., from plot of kobs vs. [Azide]; for rate constant fold higher than compound (50): relative to compound (50)
Method: DBCO analog (60), was dissolved in acetonitrile to a concentration of 60 μM. Amino acid analogs (30), (40), and (50) were serially diluted in PBS buffer in the wells of a 96-well microtiter plate to a volume of 180 μL. 20 μL of DBCO analog stock solution was added to each well and the kinetics of the loss of DBCO to form the addition adduct was monitored at 310 nm by absorbance using a SpectraMax plate reader at 25° C. A schematic of the reaction of compounds (30), (40), and (50) with compound (60) is shown as FIG. 1. The kinetics accurately fit a first order decay with […], where kobs is the pseudo first order rate constant with units of sec^−1 under conditions where [Azide compound]>>[DBCO]. A plot of kobs vs. [Azide] yields the second-order rate constant (units of M^−1 sec^−1) for each amino acid, a measure of the intrinsic chemical reactivity of each amino acid.

[4] = test system: Y50TAG site in GFP; assay: Cell-free (OCFS) incorporation into GFP at amber codon, fluorescence time course; format: biochemical
From the text: This example describes incorporation of compound (30) into green fluorescent protein. To monitor synthesis of GFP, the DNA encoding turboGFP containing an amber codon (stop codon) before the chromophore was cloned into OCFS expression vector pYD317. The stop codon (TAG) was inserted by overlapping PCR mutagenesis at the nucleotides corresponding to the amino acid tyrosine at the 50th amino acid according to the crystal structure of turboGFP (pdb 2G6X).
[…] OCFS reaction mix was immediately added to microplate for a 30 μL final reaction volume containing 30% S30 extract, 24 μg/mL T7 RNA polymerase, 1 mM L-tyrosine (Sigma, T8566), pre-mix*, 10 μM tRNA, 5 μM pCNFRS D286R, 1 mM compound (30), and 3 nM turboGFP plasmid (Evrogen, Russia, subcloned into a PYD317 vector) in DEPC-treated water (G Biosciences, 786-109). A positive control reaction using turboGFP without the stop codon was used to ensure that the reactions proceeded with rates similar previously observed, while reactions containing turboGFP Y50TAG were also run without tRNA to ensure no fluorescence was detected (negative control) in the absence of the system responsible for incorporation of pAMF. Incorporation of pAMF into GFP achieves relatively high yields of protein in a site-specific manner.

[5] = test system: trastuzumab heavy chain; assay: Cell-free incorporation into IgG at heavy chain amber codon, autoradiography; format: biochemical; conditions: 1 mM compound (30), TAG at serine position 136 (EU index)
Method: TAG codon was inserted by overlapping PCR mutagenesis at the nucleotides corresponding to the amino acid serine at the position 136 by EU index in CHI domain.
as §1, with “extracts” for “extracts containing tRNA CUA”, “DsbC, 5 μM yeast PDI,” for “DsbC,”, “glutathione, 15 μM tRNA,” for “glutathione,”, “heavy chain” for “GMCSF”, “and wild type light chain plasmid were 7.5 μg/mL and 2.5 μg/mL respectively.” for “was 5 μg/mL.”
as §2, with “For non” for “For”, “8” for “1 μL of 1 M DTT, 7”, “before being loaded on gel. […]” for “and heated in hot blot at 70 C for 5 minutes.”

| SMILES | yield of reaction with compound (61) [1] | reaction rate with compound (61) [1] | second-order rate constant [3] | rate constant fold higher than compound (50) [3] | also measured |
| --- | --- | --- | --- | --- | --- |
| [N-]=[N+]=NCc1ccc(CC(N)C(=O)O)nc1 (stereo not drawn) [compound (1), 2-Amino-3-(5-azidomethyl-pyridin-2-yl)-propionic Acid] | almost quantitative yield | comparable rates |  |  |  |
| [N-]=[N+]=NCc1ccc(C[C@H](N)C(=O)O)cn1 [compound (2)] |  | two- to four-fold slower |  |  |  |
| [N-]=[N+]=NCc1ccc(C[C@H](N)C(=O)O)cc1 [compound (30)] | almost quantitative yield | comparable rates | 1.4 M⁻¹ s⁻¹ | approximately 7 fold | incorporation into GMCSF by autoradiography [2]: intact full length GMCSF containing compound (30) was made; RFU ([4]; at 200 minutes): approximately 130,000 RFU; RFU ([4]; at 400 minutes): approximately 160,000 RFU; RFU ([4]; at 600 minutes): approximately 170,000 RFU; incorporation into IgG by autoradiography [5]: intact full length IgG containing compound (30) was made |
| [N-]=[N+]=NCCCC(=O)NCCCC[C@H](N)C(=O)O [compound (40)] |  |  | 1.4 M⁻¹ s⁻¹ | approximately 7 fold |  |
| [N-]=[N+]=Nc1ccc(C[C@H](N)C(=O)O)cc1 [compound (50), p-azido-phenylalanine, reference compound] |  |  | 0.2 M⁻¹ s⁻¹ |  |  |
